Assay results from ChEMBL document CHEMBL3217425, “Structure-based design, synthesis, and profiling of a -tryptase inhibitor with a spiro-piperidineamide scaffold, benzylamine P1 group, and a substituted indole P4 group” (Medchemcomm, 2011).

Key:
[1] = biological target: T1, SSAO (amine oxidase [copper-containing] 3) (Homo sapiens, UniProt Q16853); experiment: Stability of the compound assessed as human full length SSAO-mediated drug metabolism expressed in CHO cells measured as compound remaining after 20 mins; format: ADME, cell-based; details: CHO cells expressing human full length SSAO, read-out: Stability
T1 sequence (Q16853 whole entry): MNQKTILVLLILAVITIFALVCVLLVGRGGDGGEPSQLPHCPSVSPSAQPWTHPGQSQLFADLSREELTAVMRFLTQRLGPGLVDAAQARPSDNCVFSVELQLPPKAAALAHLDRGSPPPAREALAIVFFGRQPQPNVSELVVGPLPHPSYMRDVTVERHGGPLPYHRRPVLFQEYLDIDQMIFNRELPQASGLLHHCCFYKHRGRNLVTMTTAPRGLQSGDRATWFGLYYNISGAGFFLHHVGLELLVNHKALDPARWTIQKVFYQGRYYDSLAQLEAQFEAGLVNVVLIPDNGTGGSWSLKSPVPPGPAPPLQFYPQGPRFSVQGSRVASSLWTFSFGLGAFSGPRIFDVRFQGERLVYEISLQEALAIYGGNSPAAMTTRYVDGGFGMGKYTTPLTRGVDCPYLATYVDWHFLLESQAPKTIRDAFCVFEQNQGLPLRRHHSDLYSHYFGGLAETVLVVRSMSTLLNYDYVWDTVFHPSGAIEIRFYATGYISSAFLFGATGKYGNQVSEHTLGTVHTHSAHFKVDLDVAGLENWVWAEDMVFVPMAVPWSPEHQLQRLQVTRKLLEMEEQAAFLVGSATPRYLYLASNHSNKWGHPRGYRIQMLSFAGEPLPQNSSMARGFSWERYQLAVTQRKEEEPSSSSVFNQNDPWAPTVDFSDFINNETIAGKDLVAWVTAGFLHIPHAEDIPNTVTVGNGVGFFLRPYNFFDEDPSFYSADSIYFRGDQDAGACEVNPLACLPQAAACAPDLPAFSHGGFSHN

[2] = Drug metabolism in guinea pig liver microsomes after 20 mins; format: ADME, Cavia porcellus; details: read-out: Drug metabolism
[3] = Drug metabolism in rat liver microsomes after 20 mins; format: ADME; details: read-out: Drug metabolism
[4] = Drug metabolism in human liver microsomes after 20 mins; format: ADME; details: read-out: Drug metabolism
[5] = biological target: T2, hERG (KCNH2) (Homo sapiens, UniProt Q12809); experiment: Inhibition of human ERG channel expressed in CHO cells at 10 uM; format: cell-based; details: CHO cells expressing human ERG channel
T2 sequence (Q12809 whole entry): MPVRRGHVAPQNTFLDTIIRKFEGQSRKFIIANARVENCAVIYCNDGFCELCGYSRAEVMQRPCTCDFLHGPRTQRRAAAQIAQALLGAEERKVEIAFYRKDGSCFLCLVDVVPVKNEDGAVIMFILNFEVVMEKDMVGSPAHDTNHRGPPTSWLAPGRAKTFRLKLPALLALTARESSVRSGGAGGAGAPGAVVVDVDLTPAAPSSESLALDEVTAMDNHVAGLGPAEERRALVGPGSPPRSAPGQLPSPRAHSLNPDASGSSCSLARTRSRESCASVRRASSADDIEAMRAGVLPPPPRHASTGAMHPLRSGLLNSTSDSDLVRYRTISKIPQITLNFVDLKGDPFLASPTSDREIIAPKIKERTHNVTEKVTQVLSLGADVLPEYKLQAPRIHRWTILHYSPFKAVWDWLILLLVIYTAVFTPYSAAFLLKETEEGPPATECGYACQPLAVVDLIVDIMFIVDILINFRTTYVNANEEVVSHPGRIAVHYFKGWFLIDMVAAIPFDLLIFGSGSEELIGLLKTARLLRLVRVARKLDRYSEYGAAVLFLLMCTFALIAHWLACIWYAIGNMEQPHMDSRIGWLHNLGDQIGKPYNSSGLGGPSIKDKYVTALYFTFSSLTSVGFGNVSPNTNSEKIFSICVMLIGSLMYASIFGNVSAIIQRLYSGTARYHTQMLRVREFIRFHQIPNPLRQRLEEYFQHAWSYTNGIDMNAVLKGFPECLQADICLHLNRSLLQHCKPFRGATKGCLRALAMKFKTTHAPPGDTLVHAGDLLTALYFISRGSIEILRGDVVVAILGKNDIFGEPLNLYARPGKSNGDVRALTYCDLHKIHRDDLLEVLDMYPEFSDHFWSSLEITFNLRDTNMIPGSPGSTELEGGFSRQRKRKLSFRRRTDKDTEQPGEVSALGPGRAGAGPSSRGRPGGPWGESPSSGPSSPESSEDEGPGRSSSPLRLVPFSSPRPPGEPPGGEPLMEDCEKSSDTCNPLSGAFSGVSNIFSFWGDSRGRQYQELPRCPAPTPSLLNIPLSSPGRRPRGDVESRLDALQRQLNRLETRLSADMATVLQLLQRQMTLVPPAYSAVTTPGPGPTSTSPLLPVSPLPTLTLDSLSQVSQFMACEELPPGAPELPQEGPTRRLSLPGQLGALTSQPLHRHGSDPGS

[6] = biological target: T2, hERG (KCNH2); experiment: Inhibition of human ERG channel expressed in CHO cells at 1 uM; format: cell-based; details: CHO cells expressing human ERG channel

| remaining at 20 min [1] [%] | SMILES | metabolised at 20 min [2] [%] | metabolised at 20 min [3] [%] | metabolised at 20 min [4] [%] | inhibition at 10 µM [5] [%] | inhibition at 1 µM [6] [%] |
| --- | --- | --- | --- | --- | --- | --- |
| 8 | NCc1cccc(C2CCN(C(=O)c3ccc(C#Cc4ccccc4F)o3)CC2)c1 | – | – | – | – | – |
| 89 | COCCn1cc(C(=O)N2CCC3(CC2)COc2ccc(CN)cc23)c2cccc(F)c21 | 12 | 10 | 17 | 16 | 11 |

| SMILES | remaining at 20 min [1] [%] | metabolised at 20 min [2] [%] | metabolised at 20 min [3] [%] | metabolised at 20 min [4] [%] | inhibition at 10 µM [5] [%] | inhibition at 1 µM [6] [%] |
| --- | --- | --- | --- | --- | --- | --- |
| COCCn1cc(C(=O)N2CCC(c3cc(CN)ccc3F)CC2)c2cccc(F)c21 | 78 | 38 | 21 | 71 | – | – |
